Assay results: patent US6399541B1, “Substituted 2,4-diamino-1,3,5-triazines as herbicides” (Bayer Aktiengesellschaft, priority 1997, dated 2002)

Key:
Format in all cases: in vivo
Ipomoea [1] = assay: Post-emergence test/greenhouse; settings: after three weeks
Protocol: (§1) Solvent: 5 parts by weight of acetone
(§2) Emulsifier: 1 part by weight of alkylaryl polyglycol ether
(§3) To produce a suitable preparation of active compound, 1 part by weight of active compound is mixed with the stated amount of solvent, the stated amount of emulsifier is added and the concentrate is diluted with water to the desired concentration.
(§4) Test plants which have a height of 5 to 15 cm are sprayed with the preparation of active compound in such a way that the particular amounts of active compound desired are applied per unit area. The concentration of the spray liquor is chosen such that the particular amounts of active compound desired are applied in 1000 l of water/ha.
(§5) After three weeks, the degree of damage to the plants is assessed in % damage in comparison to the development of the untreated control.
(§6) 0%=no effect (as untreated control)

Matricaria [2] = assay: Post-emergence test/greenhouse; settings: 125 g of ai./ha, after three weeks
Protocol: as §1, §2, §3, §4, §5, §6

Veronica [3] = assay: Post-emergence test/greenhouse; settings: after three weeks
Protocol: as §1, §2, §3, §4, §5, §6

Polygonum = assay: Post-emergence test/greenhouse; settings: 60 g of ai./ha, after three weeks
Protocol: as §1, §2, §3, §4, §5, §6

Cassia [4] = assay: Post-emergence test/greenhouse; settings: after three weeks
Protocol: as §1, §2, §3, §4, §5, §6

Solanum [5] = assay: Post-emergence test/greenhouse; settings: 60 g of ai./ha, after three weeks
Protocol: as §1, §2, §3, §4, §5, §6

weeds [6] = assay: Pre-emergence test; settings: cf. Table A
Protocol: as §1, §2, §3
(§7) Seeds of the test plants are sown in normal soil. After about 24 hours, the soil is sprayed with the preparation of active compound in such a way that the particular amounts of active compound desired are employed per unit area. The concentration of the spray liquor is chosen such that the particular amounts of active compound desired are applied in 1000 l of water/ha.
as §5
(§8) 0%=no effect (as untreated control) 100%=total destruction

Alopecurus = assay: Pre-emergence test/greenhouse; settings: after three weeks
Protocol: as §1, §2, §3, §7, §5, §8

Avena fatua = assay: Pre-emergence test/greenhouse; settings: after three weeks
Protocol: as §1, §2, §3, §7, §5, §8

Amaranthus = assay: Pre-emergence test/greenhouse; settings: after three weeks
Protocol: as §1, §2, §3, §7, §5, §8

Xanthium [7] = assay: Pre-emergence test/greenhouse; settings: 1000 g of ai./ha, after three weeks
Protocol: as §1, §2, §3, §7, §5, §8

Abutilon = assay: Pre-emergence test/greenhouse; settings: after three weeks
Protocol: as §1, §2, §3, §7, §5, §8

Galium = assay: Pre-emergence test/greenhouse; settings: 1000 g of ai./ha, after three weeks
Protocol: as §1, §2, §3, §7, §5, §8

weeds [8] = assay: Post-emergence test; settings: cf. Table B
Protocol: as §1, §2, §3, §4, §5, §6

Barley [9] = assay: Post-emergence test/greenhouse; settings: 125 g of ai./ha, after three weeks
Protocol: as §1, §2, §3, §4, §5, §6

Setaria [10] = assay: Post-emergence test/greenhouse; settings: 125 g of ai./ha, after three weeks
Protocol: as §1, §2, §3, §4, §5, §6

Xanthium [11] = assay: Post-emergence test/greenhouse; settings: 125 g of ai./ha, after three weeks
Protocol: as §1, §2, §3, §4, §5, §6

Echinochloa = assay: Post-emergence test/greenhouse; settings: 125 g of ai./ha, after three weeks
Protocol: as §1, §2, §3, §4, §5, §6

Wheat = assay: Post-emergence test/greenhouse; settings: after three weeks
Protocol: as §1, §2, §3, §4, §5, §6

Cotton = assay: Pre-emergence test/greenhouse; settings: 250 g of ai./ha, after three weeks
Protocol: as §1, §2, §3, §7, §5, §8

Barley [12] = assay: Pre-emergence test/greenhouse; settings: 250 g of ai./ha, after three weeks
Protocol: as §1, §2, §3, §7, §5, §8

Ipomoea [13] = assay: Pre-emergence test/greenhouse; settings: 250 g of ai./ha, after three weeks
Protocol: as §1, §2, §3, §7, §5, §8

Matricaria [14] = assay: Pre-emergence test/greenhouse; settings: 125 g of ai./ha, after three weeks
Protocol: as §1, §2, §3, §7, §5, §8

Chenopodium = assay: Pre-emergence test/greenhouse; settings: 125 g of ai./ha, after three weeks
Protocol: as §1, §2, §3, §7, §5, §8

Reapseed = assay: Pre-emergence test/greenhouse; settings: after three weeks
Protocol: as §1, §2, §3, §7, §5, §8

Veronica [15] = assay: Pre-emergence test/greenhouse; settings: 250 g of ai./ha, after three weeks
Protocol: as §1, §2, §3, §7, §5, §8

Datura = assay: Pre-emergence test/greenhouse; settings: 125 g of ai./ha, after three weeks
Protocol: as §1, §2, §3, §7, §5, §8

Sorghum = assay: Pre-emergence test/greenhouse; settings: 250 g of ai./ha, after three weeks
Protocol: as §1, §2, §3, §7, §5, §8

Setaria [16] = assay: Pre-emergence test/greenhouse; settings: after three weeks
Protocol: as §1, §2, §3, §7, §5, §8

Viola = assay: Pre-emergence test/greenhouse; settings: 250 g of ai./ha, after three weeks
Protocol: as §1, §2, §3, §7, §5, §8

Lolium = assay: Pre-emergence test/greenhouse; settings: 250 g of ai./ha, after three weeks
Protocol: as §1, §2, §3, §7, §5, §8

Cassia [17] = assay: Pre-emergence test/greenhouse; settings: 250 g of ai./ha, after three weeks
Protocol: as §1, §2, §3, §7, §5, §8

Solanum [18] = assay: Pre-emergence test/greenhouse; settings: 125 g of ai./ha, after three weeks
Protocol: as §1, §2, §3, §7, §5, §8

CCC(Nc1nc(N)nc(C(C)F)n1)c1ccccc1 (racemic) [Example 1, 2-amino-4-(1-fluoro-ethyl)-6-(1-phenyl-propyl-amino)-1,3,5-triazine]
degree of damage, Ipomoea (Ipomoea [1]; 60 g of ai./ha): 100%
degree of damage, Ipomoea (Ipomoea [1]; 125 g of ai./ha): 100%
degree of damage, Matricaria (Matricaria [2]): 80%
degree of damage, Veronica (Veronica [3]; 60 g of ai./ha): 95%
degree of damage, Veronica (Veronica [3]; 125 g of ai./ha): 100%
degree of damage, Polygonum (Polygonum): 100%
degree of damage, Cassia (Cassia [4]; 125 g of ai./ha): 90%
degree of damage, Solanum (Solanum [5]): 95%
action against weeds compared with known compound (A) (weeds [6]): considerably strong action against weeds than the known compound (A)
degree of damage, Alopecurus (Alopecurus; 1000 g of ai./ha): 100%
degree of damage, Avena fatua (Avena fatua; 1000 g of ai./ha): 70%
degree of damage, Amaranthus (Amaranthus; 1000 g of ai./ha): 100%
degree of damage, Xanthium (Xanthium [7]): 100%
degree of damage, Abutilon (Abutilon; 1000 g of ai./ha): 70%
degree of damage, Galium (Galium): 100%
activity against weeds compared with known compound (A) (weeds [8]): considerably stronger activity against weeds than the known compound (A)

CC(Nc1nc(N)nc(C(F)(F)F)n1)c1ccccc1 (centres unmarked) [(A), 2-Amino-4-(1-phenyl-ethylamino)-6-trifluoromethyl-1,3,5-triazine, reference compound]
degree of damage, Barley (Barley [9]): 5%
degree of damage, Ipomoea (Ipomoea [1]; 60 g of ai./ha): 80%
degree of damage, Ipomoea (Ipomoea [1]; 125 g of ai./ha): 90%
degree of damage, Matricaria (Matricaria [2]): 60%
degree of damage, Veronica (Veronica [3]; 60 g of ai./ha): 70%
degree of damage, Veronica (Veronica [3]; 125 g of ai./ha): 90%
degree of damage, Polygonum (Polygonum): 80%
degree of damage, Setaria (Setaria [10]): 50%
degree of damage, Xanthium (Xanthium [11]): 60%
degree of damage, Cassia (Cassia [4]; 60 g of ai./ha): 40%
degree of damage, Cassia (Cassia [4]; 125 g of ai./ha): 80%
degree of damage, Echinochloa (Echinochloa): 50%
degree of damage, Solanum (Solanum [5]): 40%
degree of damage, Wheat (Wheat; 60 g of ai./ha): 0%
degree of damage, Wheat (Wheat; 125 g of ai./ha): 0%
degree of damage, Cotton (Cotton): 0%
degree of damage, Barley (Barley [12]): 0%
degree of damage, Ipomoea (Ipomoea [13]): 20%
degree of damage, Matricaria (Matricaria [14]): 0%
degree of damage, Alopecurus (Alopecurus; 250 g of ai./ha): 30%
degree of damage, Alopecurus (Alopecurus; 1000 g of ai./ha): 30%
degree of damage, Chenopodium (Chenopodium): 20%
degree of damage, Avena fatua (Avena fatua; 250 g of ai./ha): 0%
degree of damage, Avena fatua (Avena fatua; 1000 g of ai./ha): 0%
degree of damage, Reapseed (Reapseed; 125 g of ai./ha): 40%
degree of damage, Reapseed (Reapseed; 250 g of ai./ha): 40%
degree of damage, Veronica (Veronica [15]): 20%
degree of damage, Datura (Datura): 0%
degree of damage, Sorghum (Sorghum): 0%
degree of damage, Setaria (Setaria [16]; 250 g of ai./ha): 0%
degree of damage, Setaria (Setaria [16]; 1000 g of ai./ha): 20%
degree of damage, Amaranthus (Amaranthus; 125 g of ai./ha): 40%
degree of damage, Amaranthus (Amaranthus; 250 g of ai./ha): 80%
degree of damage, Amaranthus (Amaranthus; 1000 g of ai./ha): 70%
degree of damage, Viola (Viola): 0%
degree of damage, Xanthium (Xanthium [7]): 70%
degree of damage, Lolium (Lolium): 0%
degree of damage, Abutilon (Abutilon; 250 g of ai./ha): 0%
degree of damage, Abutilon (Abutilon; 1000 g of ai./ha): 0%
degree of damage, Cassia (Cassia [17]): 20%
degree of damage, Galium (Galium): 60%
degree of damage, Solanum (Solanum [18]): 0%

CC(Nc1nc(N)nc(C(C)(C)F)n1)c1ccccc1 (racemic) [Example 13]
degree of damage, Barley (Barley [9]): 0%
degree of damage, Ipomoea (Ipomoea [1]; 125 g of ai./ha): 100%
degree of damage, Veronica (Veronica [3]; 125 g of ai./ha): 100%
degree of damage, Cassia (Cassia [4]; 125 g of ai./ha): 95%
degree of damage, Wheat (Wheat; 125 g of ai./ha): 0%
action against weeds compared with known compound (A) (weeds [6]): considerably strong action against weeds than the known compound (A)
degree of damage, Ipomoea (Ipomoea [13]): 80%
degree of damage, Alopecurus (Alopecurus; 250 g of ai./ha): 90%
degree of damage, Avena fatua (Avena fatua; 250 g of ai./ha): 90%
degree of damage, Setaria (Setaria [16]; 250 g of ai./ha): 80%
degree of damage, Viola (Viola): 100%
degree of damage, Cassia (Cassia [17]): 100%
activity against weeds compared with known compound (A) (weeds [8]): considerably stronger activity against weeds than the known compound (A)
